In brackets after ≈: the same amount, converted by molar mass.

The conditions of the data set: buffer; pH 7.4; 200.0 µM.
`Cc1onc(-c2ccccc2)c1C(=O)N=C(N)c1ccc(Cl)cc1` displayed a solubility (kinetic) of 1.1 µg/mL (≈ 3.24 µM).
In the case of `O=C(Nc1c(F)cccc1F)C(c1ccccc1)c1ccccc1`, the kinetic solubility is < 0.7 µg/mL.
For `CSc1nc(=S)n(-c2cc(C)ccc2C)c(C)c1C(C)=O` the value was > 47.8 µg/mL.
`Cc1cccc(NC(=O)c2ccccc2NC(=O)c2ccco2)c1`: the kinetic solubility came out at 0.5 µg/mL (≈ 1.56 µM).
In turn, `O=C(Cc1ccccc1F)Nc1cc(S(=O)(=O)N2CCOCC2)ccc1N1CCCC1` yielded a kinetic solubility of 15.1 µg/mL (≈ 33.7 µM).
The value for `CCCCCc1c(O)nc(SCCN(CC)CC)[nH]c1=O.Cl` was > 52.5 µg/mL; that for `Cc1cccc2nc(-c3ccco3)c(Nc3ccccc3)n12` was 2.9 µg/mL (≈ 10 µM).
For `O=C(CNC(=O)c1ccco1)Nc1ccc(F)c(Cl)c1` the value was 2.5 µg/mL (≈ 8.43 µM); for `O=C1CCC(=O)N1CC(=O)N(c1ccccc1)c1ccccc1`, 40.4 µg/mL (≈ 131 µM); for `COC(=O)Cn1cc(C=C2C(=O)N(C)C(=O)N(C)C2=O)c2ccccc21`, 3.8 µg/mL (≈ 10.7 µM).
The value for `Cc1ccc2oc(Nc3nc(C)c(C)c(C)n3)nc2c1` was 2.4 µg/mL (≈ 8.94 µM).
With `COc1ccc(C2SCC(=O)N2c2ccc(OC)cc2)cc1` (configuration not stated), the solubility (kinetic) turned out to be 45.7 µg/mL (≈ 145 µM).
`Cc1cc(Cl)ccc1NC(=S)NCc1ccc(F)cc1` displayed a kinetic solubility of 2.8 µg/mL (≈ 9.07 µM).
Regarding `Cc1ccc(-c2cc(C(=O)N3CC4(C)CC3CC(C)(C)C4)no2)cc1` (configuration not stated), the solubility (kinetic) is < 0.4 µg/mL.
`O=C(CC12CC3CC(CC(Br)(C3)C1)C2)NC1CCCC1` yielded a solubility (kinetic) of 36.4 µg/mL (≈ 107 µM).
`O=c1c(Cc2ccc(Cl)cc2Cl)c(O)ccn1Cc1ccncc1`: the kinetic solubility is > 54.2 µg/mL.
For `CCOc1ccc(NC(=O)CNC(=O)Cc2ccccc2)cc1` the value was 4.4 µg/mL (≈ 14.1 µM).
The value for `Cc1ccc(Nc2cc(=O)[nH]c(=O)[nH]2)cc1C` was 18.2 µg/mL (≈ 78.7 µM).
For `COc1ccc(C(=O)NCC(=O)OCC(=O)NC2CCCCCC2)cc1OC` the value was > 58.9 µg/mL.
Regarding `N#C/C(=C\Nc1ccc(F)c(Cl)c1)S(=O)(=O)c1ccccn1`, the kinetic solubility amounted to 42 µg/mL (≈ 124 µM).
For `CC(=O)OC1(c2ccccc2)CCN(C)CC1(C)C.Cl` (configuration not stated) the value was 44.2 µg/mL; for `Cc1ccc(CONC(=O)c2ccc([N+](=O)[O-])cc2)cc1`, 2.1 µg/mL (≈ 7.34 µM).
Turning to `CC(CCc1ccccc1)NC(=O)C1CC1` (configuration not stated), the kinetic solubility was > 32.6 µg/mL.
For `CCOC(=O)N1CCN(CC(=O)c2ccc(O)c(C)c2O)CC1` the value was 40.7 µg/mL (≈ 126 µM).
As for `O=c1cc(O)nc[nH]1`, the solubility (kinetic) was > 16.8 µg/mL.
`COC(=O)Nc1nc(-c2ccc(F)cc2)c(C)s1` displayed a kinetic solubility of 2.2 µg/mL (≈ 8.26 µM).
The value for `Cc1ccc(Cl)cc1NS(=O)(=O)Cc1ccccc1` was 9 µg/mL (≈ 30.4 µM); that for `O=C(OCC(=O)N1CCOCC1)c1ccccc1OCc1ccc(Cl)cc1` was > 58.5 µg/mL; that for `Nc1ncc([N+](=O)[O-])cc1S(=O)(=O)c1ccccc1` was 3.8 µg/mL (≈ 13.6 µM).
The value for `O=C(CCN1C(=O)C2C3CCC(C3)C2C1=O)Nc1ccc(F)cc1` (configuration not stated) was 36.8 µg/mL (≈ 111 µM); that for `O=C(CN1c2cccc3cccc(c23)S1(=O)=O)Nc1ccccc1Br` was 4.4 µg/mL (≈ 10.5 µM).
The value for `O=C(O)c1cnn2c(-c3ccccc3)ccnc12` was > 35.9 µg/mL; that for `COc1ccc(OCC(O)CN2CC(C)OC(C)C2)cc1.Cl` (configuration not stated) was > 49.8 µg/mL.
Take `O=C(CSc1nccc(-c2cccs2)n1)Nc1cccc(Cl)c1`: the kinetic solubility stood at 2.2 µg/mL (≈ 6.08 µM).
The value for `O=C(c1ccc([N+](=O)[O-])s1)N1CCc2ccccc2C1` was 2.8 µg/mL (≈ 9.71 µM); that for `NC(=O)c1ccc(NC(=O)COC(=O)C2CCN(S(=O)(=O)c3cccs3)CC2)cc1` was 25.1 µg/mL (≈ 55.6 µM); that for `Cc1ccc(NC(=O)COC(=O)c2ccco2)cc1S(=O)(=O)N1CCOCC1` was > 61.3 µg/mL.
For `Clc1cccc(CNc2nc(-c3cccnc3)nc3ccccc23)c1` the value was 0.5 µg/mL (≈ 1.44 µM).
For the molecule `O=C1NCCCCC1NS(=O)(=O)c1ccccc1` (configuration not stated), the kinetic solubility is > 40.2 µg/mL.
The molecule `CCCCNC(=O)C1CCC(=O)N1CCc1ccccc1` (configuration not stated) displayed a kinetic solubility of 42.4 µg/mL (≈ 147 µM).
For `COC(=O)c1[nH]c2c(c1C)C(=O)CC(c1ccc(OC)cc1)C2` (configuration not stated) the value was 2.7 µg/mL (≈ 8.62 µM).
The value for `COc1ccc(S(=O)(=O)N2CCN(c3ccccn3)CC2)cc1[N+](=O)[O-]` was 5.8 µg/mL (≈ 15.3 µM); that for `CCN(C(=O)CN1C(=O)c2ccc([N+](=O)[O-])cc2C1=O)C1CCCCC1` was > 53.9 µg/mL; that for `Nc1ccc(C(=O)NCC2(c3ccccc3)CCCC2)cc1` was 17.8 µg/mL (≈ 60.5 µM).
Turning to `CC1CCCC(N2CCN(C(=O)c3ccccc3F)CC2)C1` (configuration not stated), the kinetic solubility is > 45.7 µg/mL.
For `Nc1cccc(P(=O)(c2ccccc2)c2ccccc2)c1` the value was > 44 µg/mL; for `O=C(O)c1ccc(Nc2ccc([N+](=O)[O-])c3nonc23)cc1`, > 45 µg/mL.
For `CSc1ccc(Cl)c(C(=O)N2CCN(CC(=O)N3CCCC3)CC2)c1` the value was > 57.3 µg/mL.
For `Cc1cccc(NC(=O)c2cccnc2Oc2ccccc2)c1C(=O)O`, the solubility (kinetic) was > 52.3 µg/mL.
For `CCN1CCN(CCC(=O)Nc2cc(C)ccc2C)CC1` the value was > 43.4 µg/mL.
Take `CSCCCNC(=S)Nc1ccc(N2CCOCC2)cc1`: the kinetic solubility was > 48.8 µg/mL.
The value for `OCC(O)C1OC(Nc2ccc(Br)cc2)C(O)C1O` (configuration not stated) was > 50.1 µg/mL.

The solubility (kinetic) is the concentration staying in solution when a stock, usually in DMSO, is diluted into the medium.
